Results reported in the NIST ThermoML archive (doi:10.1007/s10765-006-0056-z).

Test: molar heat capacity at constant volume; xn = mol fraction of the nth substance listed

CCCCCCCCCC [decane] + O=C=O
Settings | molar heat capacity at constant volume [J/K/mol]
443.07 K, Fluid (supercritical or subcritical phases), Mass density=374.7 kg/m3, Isochoric Heat Capacity Apparatus, x1 = 0.095 | 344.18
443.68 K, Fluid (supercritical or subcritical phases), Mass density=374.7 kg/m3, Isochoric Heat Capacity Apparatus, x1 = 0.095 | 343.49
444.49 K, Fluid (supercritical or subcritical phases), Mass density=374.7 kg/m3, Isochoric Heat Capacity Apparatus, x1 = 0.095 | 342.85
447.32 K, Fluid (supercritical or subcritical phases), Mass density=457.5 kg/m3, Isochoric Heat Capacity Apparatus, x1 = 0.178 | 485.87
447.32 K, Liquid, iso, x1 = 0.178 | 568.28
447.95 K, Fluid (supercritical or subcritical phases), Mass density=457.5 kg/m3, Isochoric Heat Capacity Apparatus, x1 = 0.178 | 478.12
448.27 K, Fluid (supercritical or subcritical phases), Mass density=457.5 kg/m3, Isochoric Heat Capacity Apparatus, x1 = 0.178 | 482.3
448.55 K, Fluid (supercritical or subcritical phases), Mass density=457.5 kg/m3, Isochoric Heat Capacity Apparatus, x1 = 0.178 | 479.96
449.12 K, Fluid (supercritical or subcritical phases), Mass density=398.3 kg/m3, Isochoric Heat Capacity Apparatus, x1 = 0.095 | 331.01
451.39 K, Fluid (supercritical or subcritical phases), Mass density=201.8 kg/m3, Isochoric Heat Capacity Apparatus, x1 = 0.178 | 488.2
451.39 K, Liquid, iso, x1 = 0.178 | 574.18
452.33 K, Fluid (supercritical or subcritical phases), Mass density=457.5 kg/m3, Isochoric Heat Capacity Apparatus, x1 = 0.178 | 465.26
452.33 K, Fluid (supercritical or subcritical phases), Mass density=509.4 kg/m3, Isochoric Heat Capacity Apparatus, x1 = 0.095 | 318.95
453.23 K, Fluid (supercritical or subcritical phases), Mass density=457.5 kg/m3, Isochoric Heat Capacity Apparatus, x1 = 0.178 | 462.99
457.12 K, Fluid (supercritical or subcritical phases), Mass density=374.7 kg/m3, Isochoric Heat Capacity Apparatus, x1 = 0.095 | 340.82
457.77 K, Liquid, iso, x1 = 0.178 | 595.83
459 K, Fluid (supercritical or subcritical phases), Mass density=477.6 kg/m3, Isochoric Heat Capacity Apparatus, x1 = 0.095 | 323.65
460.15 K, Liquid, iso, x1 = 0.178 | 606.1
460.39 K, Fluid (supercritical or subcritical phases), Mass density=320.2 kg/m3, Isochoric Heat Capacity Apparatus, x1 = 0.095 | 354.21
460.69 K, Fluid (supercritical or subcritical phases), Mass density=320.2 kg/m3, Isochoric Heat Capacity Apparatus, x1 = 0.095 | 351.33
460.89 K, Fluid (supercritical or subcritical phases), Mass density=320.2 kg/m3, Isochoric Heat Capacity Apparatus, x1 = 0.095 | 350
463.26 K, Fluid (supercritical or subcritical phases), Mass density=87 kg/m3, Isochoric Heat Capacity Apparatus, x1 = 0.095 | 712.69
463.26 K, Fluid (supercritical or subcritical phases), Mass density=398.3 kg/m3, Isochoric Heat Capacity Apparatus, x1 = 0.095 | 334.16
463.45 K, Fluid (supercritical or subcritical phases), Mass density=457.5 kg/m3, Isochoric Heat Capacity Apparatus, x1 = 0.178 | 459.11
463.65 K, Fluid (supercritical or subcritical phases), Mass density=87 kg/m3, Isochoric Heat Capacity Apparatus, x1 = 0.095 | 685.49
463.85 K, Fluid (supercritical or subcritical phases), Mass density=87 kg/m3, Isochoric Heat Capacity Apparatus, x1 = 0.095 | 688.16
464.05 K, Fluid (supercritical or subcritical phases), Mass density=87 kg/m3, Isochoric Heat Capacity Apparatus, x1 = 0.095 | 691.36
465.43 K, Fluid (supercritical or subcritical phases), Mass density=87 kg/m3, Isochoric Heat Capacity Apparatus, x1 = 0.095 | 690.82
466.3 K, Fluid (supercritical or subcritical phases), Mass density=408.8 kg/m3, Isochoric Heat Capacity Apparatus, x1 = 0.178 | 493.61
467.05 K, Fluid (supercritical or subcritical phases), Mass density=408.8 kg/m3, Isochoric Heat Capacity Apparatus, x1 = 0.178 | 490.54
467.19 K, Fluid (supercritical or subcritical phases), Mass density=87 kg/m3, Isochoric Heat Capacity Apparatus, x1 = 0.095 | 706.83
467.97 K, Fluid (supercritical or subcritical phases), Mass density=408.8 kg/m3, Isochoric Heat Capacity Apparatus, x1 = 0.178 | 487.71
468.76 K, Fluid (supercritical or subcritical phases), Mass density=374.7 kg/m3, Isochoric Heat Capacity Apparatus, x1 = 0.095 | 336.34
468.76 K, Fluid (supercritical or subcritical phases), Mass density=408.8 kg/m3, Isochoric Heat Capacity Apparatus, x1 = 0.178 | 486.42
470.72 K, Fluid (supercritical or subcritical phases), Mass density=477.6 kg/m3, Isochoric Heat Capacity Apparatus, x1 = 0.095 | 326.31
471.2 K, Fluid (supercritical or subcritical phases), Mass density=281.4 kg/m3, Isochoric Heat Capacity Apparatus, x1 = 0.095 | 360.93
471.69 K, Fluid (supercritical or subcritical phases), Mass density=281.4 kg/m3, Isochoric Heat Capacity Apparatus, x1 = 0.095 | 359.81
471.89 K, Fluid (supercritical or subcritical phases), Mass density=281.4 kg/m3, Isochoric Heat Capacity Apparatus, x1 = 0.095 | 358.48
473.25 K, Fluid (supercritical or subcritical phases), Mass density=281.4 kg/m3, Isochoric Heat Capacity Apparatus, x1 = 0.095 | 350.91
474.61 K, Fluid (supercritical or subcritical phases), Mass density=457.5 kg/m3, Isochoric Heat Capacity Apparatus, x1 = 0.178 | 456.77
475.97 K, Fluid (supercritical or subcritical phases), Mass density=110.8 kg/m3, Isochoric Heat Capacity Apparatus, x1 = 0.095 | 594.8
476.12 K, Fluid (supercritical or subcritical phases), Mass density=110.8 kg/m3, Isochoric Heat Capacity Apparatus, x1 = 0.095 | 599.07
476.33 K, Fluid (supercritical or subcritical phases), Mass density=110.8 kg/m3, Isochoric Heat Capacity Apparatus, x1 = 0.095 | 591.07
476.36 K, Fluid (supercritical or subcritical phases), Mass density=320.2 kg/m3, Isochoric Heat Capacity Apparatus, x1 = 0.095 | 342.64
476.56 K, Fluid (supercritical or subcritical phases), Mass density=408.8 kg/m3, Isochoric Heat Capacity Apparatus, x1 = 0.178 | 472.21
476.75 K, Fluid (supercritical or subcritical phases), Mass density=110.8 kg/m3, Isochoric Heat Capacity Apparatus, x1 = 0.095 | 590.53
476.94 K, Fluid (supercritical or subcritical phases), Mass density=398.3 kg/m3, Isochoric Heat Capacity Apparatus, x1 = 0.095 | 336.82
477.33 K, Fluid (supercritical or subcritical phases), Mass density=110.8 kg/m3, Isochoric Heat Capacity Apparatus, x1 = 0.095 | 594.8
477.52 K, Fluid (supercritical or subcritical phases), Mass density=374.7 kg/m3, Isochoric Heat Capacity Apparatus, x1 = 0.095 | 337.73
477.52 K, Fluid (supercritical or subcritical phases), Mass density=375 kg/m3, Isochoric Heat Capacity Apparatus, x1 = 0.178 | 493.12
477.81 K, Fluid (supercritical or subcritical phases), Mass density=375 kg/m3, Isochoric Heat Capacity Apparatus, x1 = 0.178 | 495.64
478.2 K, Fluid (supercritical or subcritical phases), Mass density=375 kg/m3, Isochoric Heat Capacity Apparatus, x1 = 0.178 | 491.03
478.49 K, Fluid (supercritical or subcritical phases), Mass density=375 kg/m3, Isochoric Heat Capacity Apparatus, x1 = 0.178 | 492.57
479.84 K, Fluid (supercritical or subcritical phases), Mass density=408.8 kg/m3, Isochoric Heat Capacity Apparatus, x1 = 0.178 | 471.47
481.77 K, Fluid (supercritical or subcritical phases), Mass density=241 kg/m3, Isochoric Heat Capacity Apparatus, x1 = 0.095 | 380.35
481.96 K, Fluid (supercritical or subcritical phases), Mass density=241 kg/m3, Isochoric Heat Capacity Apparatus, x1 = 0.095 | 378.38
482.02 K, Fluid (supercritical or subcritical phases), Mass density=131.5 kg/m3, Isochoric Heat Capacity Apparatus, x1 = 0.095 | 517.93
482.41 K, Fluid (supercritical or subcritical phases), Mass density=131.5 kg/m3, Isochoric Heat Capacity Apparatus, x1 = 0.095 | 521.08
483.31 K, Fluid (supercritical or subcritical phases), Mass density=241 kg/m3, Isochoric Heat Capacity Apparatus, x1 = 0.095 | 370.32
483.37 K, Fluid (supercritical or subcritical phases), Mass density=131.5 kg/m3, Isochoric Heat Capacity Apparatus, x1 = 0.095 | 528.44
485.04 K, Fluid (supercritical or subcritical phases), Mass density=281.4 kg/m3, Isochoric Heat Capacity Apparatus, x1 = 0.095 | 352.45
